Measurements: patent US7687484B2, “Transporter enhanced corticosteroid activity” (priority 2006, dated 2010)
“Also recorded” adds a separate entry of the source. Where two headings read alike, the source gives them in different places.

Key:
glucocorticoid receptor [1] = biological target: T1, glucocorticoid receptor (Homo sapiens, UniProt P04150); details: relative to dexamethasone = 100; average of all values if multiple available; cited from earlier work
T1 sequence (P04150 1-777): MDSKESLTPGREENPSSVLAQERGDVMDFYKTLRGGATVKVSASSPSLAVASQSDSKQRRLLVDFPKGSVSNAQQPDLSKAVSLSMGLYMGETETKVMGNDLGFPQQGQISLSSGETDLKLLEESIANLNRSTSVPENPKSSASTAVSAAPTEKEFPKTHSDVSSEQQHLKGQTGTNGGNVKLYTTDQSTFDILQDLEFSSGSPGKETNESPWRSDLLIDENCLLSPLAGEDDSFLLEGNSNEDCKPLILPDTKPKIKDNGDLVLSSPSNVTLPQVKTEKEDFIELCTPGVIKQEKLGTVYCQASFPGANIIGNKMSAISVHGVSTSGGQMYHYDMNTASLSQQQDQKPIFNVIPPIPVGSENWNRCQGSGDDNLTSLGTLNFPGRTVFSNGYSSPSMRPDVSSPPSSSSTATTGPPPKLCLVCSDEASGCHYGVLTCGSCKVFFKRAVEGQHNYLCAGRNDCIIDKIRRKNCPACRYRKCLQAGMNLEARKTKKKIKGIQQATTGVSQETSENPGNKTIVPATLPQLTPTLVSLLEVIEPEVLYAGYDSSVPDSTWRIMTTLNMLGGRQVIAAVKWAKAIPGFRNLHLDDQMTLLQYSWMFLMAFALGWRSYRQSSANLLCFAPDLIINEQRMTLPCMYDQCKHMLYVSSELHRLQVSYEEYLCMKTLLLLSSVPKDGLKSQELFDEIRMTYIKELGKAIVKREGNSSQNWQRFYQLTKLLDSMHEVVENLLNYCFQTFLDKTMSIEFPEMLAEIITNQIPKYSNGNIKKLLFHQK

[2] = logP reported in literature; cited from earlier work
transcortin (CBG) = biological target: T2, transcortin (CBG) (Homo sapiens, UniProt P08185); experiment: Binding of corticosteroids to transcortin: 3H-cortisol competition in charcoal-treated diluted plasma
T2 construct: from tissue; host or cells: plasma from venous blood of healthy volunteers, charcoal-treated, diluted 100-fold
T2 sequence (P08185 23-405): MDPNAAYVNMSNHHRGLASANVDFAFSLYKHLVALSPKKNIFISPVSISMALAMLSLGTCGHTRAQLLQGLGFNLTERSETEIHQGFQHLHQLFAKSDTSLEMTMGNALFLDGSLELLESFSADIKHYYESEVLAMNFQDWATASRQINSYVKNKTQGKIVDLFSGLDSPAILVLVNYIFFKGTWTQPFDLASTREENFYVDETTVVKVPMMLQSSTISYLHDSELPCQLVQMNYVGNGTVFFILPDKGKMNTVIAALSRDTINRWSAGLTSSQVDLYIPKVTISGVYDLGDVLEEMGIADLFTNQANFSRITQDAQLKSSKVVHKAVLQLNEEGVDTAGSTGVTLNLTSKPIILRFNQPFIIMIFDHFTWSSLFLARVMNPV
Description: Experimental procedure: Venous blood was collected from healthy volunteers into heparin-containing tubes (5 Us/100 ml serum) and cells were separated from plasma by centrifugation (1500 g for 15 min). […] Charcoal-treated plasma was diluted 100-fold with binding buffer (10 mM Tris-HCl; 2 mM DTT (dithiotreitol); 1.5 mM EDTA; 0.02 M Na2MoO4; 10% Glycerol; pH 7.4) and was stored aliquoted at −80° C. […] The assay ingredients were mixed and the tubes were incubated for 1 hour on ice. At the end of the incubation, 0.2 ml of charcoal suspension (0.5% Norit A and 0.05% BSA) was added to each tube. The tubes were briefly agitated and incubated for an additional 10 min at 0° C. They were then centrifuged for 10 min at 15 000 g, and the same aliquots from the clear supernatants were quantitatively decanted into counting vials and combined with 3 ml of toluene-based scintillation fluid. […] Specific binding and IC50-values were calculated.

glucocorticoid receptor [3] = biological target: T1, glucocorticoid receptor; experiment: Relative binding affinity for the glucocorticoid receptor (GCR/GR); details: GRs were calculated from RBAs; read-out: GR Est. IC50
[4] = biological target: T3, Corticosteroid Binding Globulin (CBG), transcortin (Homo sapiens, UniProt P08185); details: cited from earlier work; for Class: CBG binding activity class
T3 sequence (P08185 23-405): T2 sequence (P08185 23-405)

[5] = test system: forearms of human volunteers; experiment: Human vasoconstriction (blanching) testing; format: in vivo; set-up: key to Vasoconstriction activity (total score of 4 tests): sum of 4 tests, each 0 = normal skin to 4 = very intense pallor
Description: Solutions of LE, HC and PRN (0.1 or 1 mM) alone, or mixtures of LE and HC (0.1+0.1 mM, or 1+1 mM), or LE and PRN (0.1+0.1 mM, or 1+1 mM) were prepared with a vehicle containing absolute ethanol and propylene glycol (9:1). […] After evaporation of ethanol (20 min), the films were applied to the forearms of human volunteers for 4 hours. Subsequently, the vasoconstriction reaction was read and judged by the appearance of pallor at various time intervals after the removal of the discs and films. The grading scale was as follows: 0, normal skin; 1, slight pallor; 2, pallor with at least two corners outlined; 3, even pallor with a clear outlined of the application sites; 4, very intense pallor. Due to the relatively high variations in response between the volunteers, a total score of 4 tests at each time point was taken for the activity evaluation.

[6] = 3 nM 3H-cortisol, 1 hour on ice, plasma diluted 100-fold, read-out: IC50-values (nM) average ± SEM (n)
[7] = estimated, unpublished results Bodor, Kurucz 2006, read-out: CBG Est. IC50

SMILES | rBA (relative receptor binding affinity) (glucocorticoid receptor [1]) | logP [2] | IC50 (transcortin (CBG); [6]) [nM] | IC50 (transcortin (CBG); [7]) [nM] | other results
CCC(=O)O[C@]1(C(=O)CCl)[C@@H](C)C[C@H]2[C@@H]3CCC4=CC(=O)C=C[C@]4(C)[C@@]3(F)[C@@H](O)C[C@@]21C [Clobetasol propionate] | 6300 | 3.83 | – | – | –
C[C@H]1C[C@H]2[C@@H]3CCC4=CC(=O)C=C[C@]4(C)[C@@]3(F)[C@@H](O)C[C@]2(C)[C@@]1(O)C(=O)CO [Betamethasone] | – | 1.94 | – | – | –
CCCC(=O)O[C@]1(C(=O)CO)CC[C@H]2[C@@H]3CCC4=CC(=O)CC[C@]4(C)[C@H]3[C@@H](O)C[C@@]21C [Hydrocortisone 17-butyrate] | 95 | – | – | – | –
CCOC(=O)[C@@]1(OC(=O)C(Cl)Cl)CC[C@H]2[C@@H]3CCC4=CC(=O)C=C[C@]4(C)[C@H]3[C@@H](O)C[C@@]21C [Etiprednol dicloacetate (BNP-166), Etiprednol dicloacetate] | 200 | – | 4500 ± 973 | – | –
C[C@]12CCC(=O)C=C1CCC1C2[C@@H](O)C[C@@]2(C)C1CC[C@]2(O)C(=O)O (stereo partly drawn) [Cortienic acid (CA) GYKI-24805, 11β,17α-dihydroxyandrost-4-en-3-one-17β-carboxylic acid] | – | – | 117 ± 49 | 120 | IC50 (glucocorticoid receptor [3]): > 1 µM
COC(=O)[C@@]1(O)CCC2C3CCC4=CC(=O)C=C[C@]4(C)C3[C@@H](O)C[C@@]21C (stereo partly shown) [Δ1-CA-Me GYKI-24776, Δ^1-CA, methyl ester] | – | – | 31 ± 11 | 30 | IC50 (glucocorticoid receptor [3]): > 1 µM
CCC(=O)O[C@]1(C(=O)SCF)[C@H](C)C[C@H]2[C@@H]3C[C@H](F)C4=CC(=O)C=C[C@]4(C)[C@@]3(F)[C@@H](O)C[C@@]21C [Fluticasone propionate] | – | 4.20 | – | > 10000 | –
CC1(C)O[C@@H]2C[C@H]3[C@@H]4C[C@H](F)C5=CC(=O)C=C[C@]5(C)[C@H]4[C@@H](O)C[C@]3(C)[C@]2(C(=O)CO)O1 [Flunisolide] | 165 | 2.28 | – | – | –
C[C@]12C=CC(=O)C=C1CCC1C2[C@@H](O)C[C@@]2(C)C1CC[C@]2(O)C(=O)O (stereo partly shown) [Δ1-CA GYKI-24762, Δ^1-cortienic acid] | – | – | 52 ± 10 | 50 | IC50 (glucocorticoid receptor [3]): > 1 µM
C[C@]12C[C@H](O)[C@H]3[C@@H](CCC4=CC(=O)CC[C@@]43C)[C@@H]1CC[C@@H]2C(=O)CO [Corticosterone] | 35 | 1.94 | – | – | Class [4]: 1; Log 1/K ([4]; CBG binding affinity, literature data): −7.881
CCCC1O[C@@H]2C[C@H]3[C@@H]4CCC5=CC(=O)C=C[C@]5(C)[C@H]4[C@@H](O)C[C@]3(C)[C@]2(C(=O)CO)O1 (stereo partly shown) [Budesonide, 22R, Budesonide] | – | 3.24 | – | – | –
CCC(=O)O[C@]1(C(=O)CO)CC[C@H]2[C@@H]3CCC4=CC(=O)CC[C@]4(C)[C@H]3[C@@H](O)C[C@@]21C [Hydrocortisone 17-propionate] | 79 | 2.70 | – | – | –
CC(=O)O[C@]1(C(=O)CO)CC[C@H]2[C@@H]3CCC4=CC(=O)CC[C@]4(C)[C@H]3[C@@H](O)C[C@@]21C [Hydrocortisone 17-acetate] | 41 | – | – | – | –
C[C@]12CCC(=O)C=C1CCC1C2[C@@H](O)C[C@@]2(C)C1CC[C@]2(O)C(=O)CO (stereo partly shown) [Hydrocortisone (cortisol), hydrocortisone] | – | 1.61 | 69 ± 8 | 70 | Vasoconstriction activity (total score of 4 tests) ([5]; 0.1 mM, 2 hr after removal, 4 h application): 0; Vasoconstriction activity (total score of 4 tests) ([5]; 0.1 mM, 4 hr after removal): 0; Vasoconstriction activity (total score of 4 tests) ([5]; 0.1 mM, 6 hr after removal): 0; Vasoconstriction activity (total score of 4 tests) ([5]; 0.1 mM, 8 hr after removal): 0; Vasoconstriction activity (total score of 4 tests) ([5]; 0.1 mM, 10 hr after removal): 0; Vasoconstriction activity (total score of 4 tests) ([5]; 0.1 mM, 16 hr after removal): 0; Vasoconstriction activity (total score of 4 tests) ([5]; 0.1 mM, 18 hr after removal): 0; Vasoconstriction activity (total score of 4 tests) ([5]; 0.1 mM, 24 hr after removal): 0; Vasoconstriction activity (total score of 4 tests) ([5]; 1 mM, 2 hr after removal, 4 h application): 0; Vasoconstriction activity (total score of 4 tests) ([5]; 1 mM, 4 hr after removal): 0; Vasoconstriction activity (total score of 4 tests) ([5]; 1 mM, 6 hr after removal): 0; Vasoconstriction activity (total score of 4 tests) ([5]; 1 mM, 8 hr after removal): 0; Vasoconstriction activity (total score of 4 tests) ([5]; 1 mM, 10 hr after removal): 0; Vasoconstriction activity (total score of 4 tests) ([5]; 1 mM, 16 hr after removal): 0; Vasoconstriction activity (total score of 4 tests) ([5]; 1 mM, 18 hr after removal): 0; Vasoconstriction activity (total score of 4 tests) ([5]; 1 mM, 24 hr after removal): 0; Vasoconstriction activity alone (in words) ([5]; by itself, concentration range 0.1 to 1 mM, human skin, listed as HC): do not yield any detectable activity; also recorded: no activity; Class [4]: 1
C[C@@H]1C[C@H]2[C@@H]3CCC4=CC(=O)C=C[C@]4(C)[C@@]3(Cl)[C@@H](O)C[C@]2(C)[C@@]1(O)C(=O)CCl [Mometasone] | 88 | – | – | – | –
